Test results: patent publication US7067523B2, “Use of pyrone carboxylates for controlling pests” (Sumitomo Chemical Company, Limited, priority 2002, dated 2006)

Tested on: Blattela germanica
Assay: Topical application to adult female Blattela germanica, mortality after 7 days
Type: in vivo
Conditions: 1 μl of 20 μg/μl acetone solution applied to ventral thorax of adult female, 10 insects per group, triplicate
Experimental: 1 μl of a 20 μg/μl acetone solutions of each of the present compounds No. 1 and the control compound was applied onto the surface of the ventral region of the thorax of adult female Blattela germanica. These insects were kept with a feed (solid feed for rat, Oriental Yeast, Co., Ltd.) and water for 7 days. Subsequently, the insects were examined for death to obtain mortality (10 insects per group, triplicate).
In a similar manner to the Experiment example 1, using a 20 μg/μl acetone solution of each of the present compounds Nos. 2, 3, 4, 5, 6, 7, 10, 11, 13, 14, 15, 16 and 18 instead of the present compound No. 1 and the control compound, the experiment was carried out to obtain mortality of the cockroach.
In a similar manner to the Experiment example 1, using a 2.5 μg/μl acetone solution of each of the present compounds Nos. 5 and 6 instead of the present compound No. 1 and the control compound, the experiment was carried out to obtain mortality of the cockroach.

Structure (SMILES) | mortality
CCC(=O)c1c(O)cc(C)oc1=O [control compound, 4-hydroxy-6-methyl-3-propanoyl-2-pyrone] | 30%
CCOC(=O)c1c(O)cc(C)oc1=O [Compound No. 1, ethyl 4-hydroxy-6-methyl-2-oxo-2H-pyrane-3-carboxylate] | 100%
